Measured values from patent US20210162078A1, “METHOD FOR DIAGNOSIS OF DO[…] MOVEMENT DISORDERS” (LikeMinds, Inc., priority 2018, published 2021).
Where two headings read alike, the source gives them in different places.

What was measured:
DAT [1] = target: T1, DAT (Homo sapiens, UniProt Q01959); assay: Binding selectivity of DaT2020 for DAT over SERT
Target sequence in this assay (Q01959 whole entry, species assumed): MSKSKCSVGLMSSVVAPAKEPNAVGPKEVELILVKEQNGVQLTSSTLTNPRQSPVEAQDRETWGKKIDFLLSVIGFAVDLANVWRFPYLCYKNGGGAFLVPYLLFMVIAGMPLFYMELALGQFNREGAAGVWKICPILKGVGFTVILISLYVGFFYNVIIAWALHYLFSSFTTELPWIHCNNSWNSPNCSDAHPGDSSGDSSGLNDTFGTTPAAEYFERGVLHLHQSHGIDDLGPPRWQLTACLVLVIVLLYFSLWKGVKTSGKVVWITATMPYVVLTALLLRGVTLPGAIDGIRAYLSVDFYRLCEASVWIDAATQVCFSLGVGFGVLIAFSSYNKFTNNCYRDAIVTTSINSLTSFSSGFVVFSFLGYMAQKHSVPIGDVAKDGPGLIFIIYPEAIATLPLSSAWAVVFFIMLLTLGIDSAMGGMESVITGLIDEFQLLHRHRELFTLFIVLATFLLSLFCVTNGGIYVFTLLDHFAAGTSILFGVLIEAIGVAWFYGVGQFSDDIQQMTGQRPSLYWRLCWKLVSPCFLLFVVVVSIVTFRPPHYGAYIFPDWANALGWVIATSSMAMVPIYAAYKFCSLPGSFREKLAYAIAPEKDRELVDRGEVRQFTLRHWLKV

DAT in the striatum [2] = target: T2, DAT in the striatum (Homo sapiens, UniProt Q01959); assay: DaT2020 SPECT study: striatal binding ratio over time after IV injection; format: in vivo; conditions: for specific binding ratio reached, as % of average stable binding ratio: within six min after injection
T2 construct: from tissue; host or cells: striatum of living subjects (in vivo SPECT)
T2 sequence (Q01959 whole entry): as the sequence (Q01959 whole entry, species assumed) above
Protocol: The results obtained from administering lower doses of radiolabeled_DaT2020 (5.3 mCi) were modeled from the data obtained using the 8 mCi dose and a 3-headed camera. Within six min after injection of radiolabeled DaT2020, the specific binding ratios of Parkinson's patients and the healthy volunteer group had reached 90% and 74% of the average stable binding ratio of 1.32 and 1.64, respectively, during the previously determined imaging time of 15 min to 45 min post-administration. In contrast, DaTscan takes least 180 min to reach a stable binding ratio.
The subjects used in the study were healthy volunteers (HV) and those with at least mild Parkinson's disease (PD) (Seibyl at al. (2008) “ALTROPANE SPECT in Parkinson's disease patients and healthy controls” (poster). Abs. Movement Dis. Soc. 12th Internat. Con. Parkinson's Disease and Movement Disorders). All subjects were evaluated by a clinician using validated measures to determine if there is evidence of a movement disorder. Any subject using an anti-parkinsonian medication abstained from its use for at least 12 hr prior to the movement disorder evaluation. […]
ROIs were determined using data obtained from about 24 min to 30 min after dose administration, with individual subject ROI sampling of the left and right caudate and putamen and an occipital background region. […]
To determine the striatal binding ratios (SBR) extract total counts within the ROI, total volume, and count density (counts/voxel) from each scan. SBR is calculated as the density of counts (counts per voxel per min) in the striatal region minus the counts in the occipital cortex (background) divided by the density of counts in the occipital background region. The mean striatal SBR scores are calculated as the mean of the left and right caudate and putamen SBR scores.
DaT2020 SBR data over time were abstracted by reading the graphics showing SBR over time for PD patients (Seibyl and Merck, ibid., Appendix 1) (the first scan of two was read), and in Appendix 2 for healthy volunteers (Seibyl and Merck, ibid., Appendix 2).

[3] = Clinical safety and radiation dose of radiolabeled DaT2020 bolus injection; format: in vivo, human
Protocol: Such buffers include, but are not limited to, ethanol (solvent), sodium hydroxide and acetic acid (pH adjustment), sodium chloride injection (isotonic vehicle). The formulation to be administered as a bolus injection has been shown in sponsored clinical trials to be safe containing a dose of up to about 8 mCi to 10 mCi of radiolabeled DaT2020 and delivered in a total volume of about 2.5 mL to about 5 mL.
The radioactivity of the dose of radiolabeled DaT2020 or of its radiolabeled derivatives, can be determined one with skill in the art, e.g. by a nuclear medicine imaging technician. In addition, the total radioactivity of the actual administered dose is of relevance and not the volume administered to achieve this dose. The exact radioactive dose of the tracer administered is determined by calculating the difference between the radioactivity in the syringe and delivery system before and after injection. After the dose is delivered, the syringe is filled with a volume of saline equal to the administered dose volume. The syringe content is recounted under the same conditions as used to determine the dose; separately. […]

DAT in the striatum [4] = target: T2, DAT in the striatum; conditions: imaging time 15 min to 45 min post-administration, cited from earlier work
DAT [5] = target: T1, DAT; conditions: DAT sites per one SERT site; package insert; cited from earlier work
Target sequence in this assay (Q01959 whole entry, species assumed): as above

DAT in the striatum [6] = target: T2, DAT in the striatum; conditions: cited from earlier work; for time after injection to stable binding to striatal DAT: DaTscan, IV injection, SPECT
DAT [7] = target: T1, DAT; design: host or cells: brain tissue in vivo; conditions: after binding to transporters other than DAT; package insert; cited from earlier work
Target sequence in this assay (Q01959 whole entry): as the sequence (Q01959 whole entry, species assumed) above

COC(=O)[C@H]1[C@@H](c2ccc(F)cc2)C[C@@H]2CC[C@H]1N2C/C=C/I [DaT2020, E-2β-carbomethoxy-3β-(4-fluorophenyl)-N-(3-iodo-E-allyl) nortropane]
binding selectivity for DAT over SERT (DAT [1]): 28 fold
specific binding ratio reached, as % of average stable binding ratio (DAT in the striatum [2]; Parkinson's patients): 90%
specific binding ratio reached, as % of average stable binding ratio (DAT in the striatum [2]; healthy volunteer group): 74%
time after administration at which stable binding to DAT occurs (DAT in the striatum [2]; radiolabeled DaT2020, IV injection, SPECT): 15 min
safety of bolus injection in sponsored clinical trials ([3]; dose of up to about 8 mCi to 10 mCi, total volume about 2.5 mL to about 5 mL): safe
effective dose ([3]; for 5 mCi of radiolabeled DaT2020): approximately 4.3 mSv
average stable binding ratio (SBR) (DAT in the striatum [4]; Parkinson's patients): 1.32
average stable binding ratio (SBR) (DAT in the striatum [4]; healthy volunteer group): 1.64

COC(=O)[C@H]1[C@@H](c2ccc(I)cc2)C[C@@H]2CC[C@H]1N2CCCF [DaTscan, N-ω-fluoropropyl-2β-carbomethoxy-3β-(4-iodophenyl) nortropane]
DAT sites bound for every one SERT site (DAT [5]): two to three
time after injection to stable binding to striatal DAT (DAT in the striatum [6]): 3 h
time after injection to stable binding to striatal DAT (DAT in the striatum [6]; listed as [^123I]-FP-CIT): 3 h
time for which binding remains stable (DAT in the striatum [6]; after reaching stable binding 3 hr post-injection): 3 h
DaTscan available for DAT transporter binding in the brain tissue (DAT [7]): about 7%
